Literature values in US20260199246A1, “LUMATEPERONE PHARMACEUTICAL COMPOSITION, AND LONG-ACTING MICROSPHERE SUSTAINED-RELEASE FORMULATION AND PREPARATION METHOD THEREFOR” (SICHUAN KELUN PHARMACEUTICAL RESEARCH INSTITUTE CO., LTD., priority 2022, published 2026).

Conditions: compared with risperidone

Compound: CN1CCN2c3c(cccc31)[C@@H]1CN(CCCC(=O)c3ccc(F)cc3)CC[C@@H]12 [Lumiperone, Lumateperone]
- reduction of the risk of weight gain: 13%
